# Experimental data: patent US20240125703A1, “SYSTEMS AND METHODS FOR Q[…] OBSERVED VISUALIZATION OF FL[…] AGENTS” (Stryker Corporation, priority 2022, published 2024)
# Key:
# ureters [1] = assay: Contrast quantification / contrast enhancement factor (CEF) from surgical video frames of ureters, laparoscopic/minimally invasive colorectal surgery (Phase 2); assay type: in vivo, human; settings: for contrast quantification: single subject, 1.0 mg dose
# Method: The following example illustrates using contrast quantification, according to method 100, to assess the visual effectiveness of different fluorescence imaging agent doses. In this example, subjects undergoing laparoscopic/minimally invasive colorectal surgery received doses of either 0.3 mg, 1.0 mg, or 3 mg of pudexacianinium chloride (Chemical formula (A))—an indocyanine-green derivative fluorescence imaging agent with hydrophilic properties and rapid urinary clearance without metabolism after intravenous administration—at the start of the minimally invasive surgery procedure and the normal colectomy was completed.
# At pre-specified time intervals during the surgery, the surgeon utilized a fluorescence visualization system to examine the retroperitoneum and attempted to visualize the ureters. The surgical videos generated by the fluorescence visualization system were recorded. Frames from these surgical videos were analyzed according to method 100 to quantify the color contrast observable by the surgeon when a bolus of the fluorescence imaging agent passed through the ureters.
# Baseline and fluorescence-containing images for a subject who received a 1.0 mg dose of the fluorescence imaging agent are illustrated in FIG. 5—baseline image 400 and fluorescence-containing image 402. The color images 400, 402 are full color surgical video frames generated by a fluorescence visualization system that combines full color and fluorescence frames into a combined frame in which the fluorescence signal is captured in the green component of the frame. The color images 400, 402 capture a portion of a ureter, which is visible in bright green in fluorescence-containing image 402. The fluorescence-containing image 402 was captured while a bolus of the fluorescence imaging agent was present in the portion of the ureter within the field of view, and the baseline image 400 was captured shortly after the bolus of the fluorescence imaging agent had at least partially passed through the portion of the ureter.
# Each of the color images 400, 402 was imported in a video analysis software and exported as separate greyscale bitmaps of the red (R), green (G) and blue (B) color components corresponding to each full color image frame.
# Next, a line was plotted that transects the ureter at the same location on both the fluorescence-containing and baseline bitmaps for each R, G, and B color component. Graphs were subsequently created that plot the bitmap signal intensity values at each point along the line segment against position on the line segment for each line segment in each color component. Red, green and blue graphs were constructed for each pair of fluorescence-containing — baseline color components. Exemplary graphs are illustrated in FIGS. 7A-C, which include the graphs for each color component for the fluorescence-containing image (“dye”) and baseline image (“no-dye”) on the same plot. FIG. 7A is the graph for the red color component for the fluorescence-containing and baseline images, FIG. 7B is the graph for the blue color component for the fluorescence-containing and baseline images, and FIG. 7C is the graph for the green color component for the fluorescence-containing and baseline images,
# At least the graph for the green component was then analyzed to identify, according to steps 104 and 106 of method 100, regions along the line segment (shown in FIG. 7D as position 0-300) that—by comparison with the bitmap—lie clearly inside the anatomical boundaries of the ureter (a region encompassed by the anatomy of interest according to step 104) or clearly outside of those same anatomical boundaries (a region not encompassed by the anatomy of interest according to step 106). Note that the “inside” and “outside” regions are different for the fluorescence imaging agent (“dye”) and baseline (“no Dye”) images due to the differences in the field of view of the color images. […]
# [2] = In vitro NIR-F of ASP5354 in 96 well plates, microplate reader (excitation 780 nm, emission 820 nm); assay type: physicochemical; settings: 0.01-1000 μg/mL in 96 well plates
# Method: The following example illustrates using a measure of visual enhancement of the anatomy of interest in a color image (a contrast enhancement factor), generated according to method 100, as an alternative to biological samples for bioequivalence and bioavailability assessments of a fluorescence imaging agent, in particular the fluorescence dye ASP5354 (pudexacianinium). In this example, two in vitro studies were performed to determine the effect of ASP5354 concentration on near-infrared fluorescence (NIR-F). In the first study, ASP5354 (0.01-1000 μg/mL) was added to 96 well plates, the plates placed in a microplate reader, and subjected to a near-infrared excitation frequency of 780 nm. The emitted NIR-F determined at a wavelength of 820 nm. The fluorescence intensity increased as the concentration of pudexacianinium increased and tended to plateau at concentrations greater than or equal to 100 μg/mL.
# pig ureters ex vivo = assay: NIR-F of pudexacianinium instilled in pig ureters ex vivo (PDE-NEO NIR-F imager); settings: for NIR-F Intensity: mean, three ureters
# Method: In the second study, pudexacianinium (0.01-10 μg/mL) was instilled in pig ureters ex vivo and the NIR-F determined using a PDE-NEO NIR-F imager. Here too, the NIR-F intensity increased with increasing concentrations of pudexacianinium with the fluorescence intensity tending to plateau at concentrations equal to or greater than 1 μg/mL, as shown in the table below. Thus, the fluorescence activity of pudexacianinium can be visualized in the lumen of ureters.
# ureters [3] = assay: In vivo ureter visualization in Gottingen minipigs, NIR-F camera, visual assessment by three clinicians
# Method: Next, the ability to visualize ureters in vivo was assessed in Gottingen minipigs. The animals were anesthetized, laparotomized and then intravenously injected with pudexacianinium (0.001 or 0.01 mg/kg). Videos of the abdominal cavity were taken using a NIR-F camera and assessed visually by three independent clinicians for up to three hours.
# [4] = Urine concentration of pudexacianinium in minipigs; assay type: in vivo, Gottingen minipigs; settings: 0.01 mg/kg; over 3 hour observation period
# Method: A direct translation of the nonclinical pharmacology visualization results in the intended clinical use and dose in humans is considered feasible given the simple elimination route of the dye in both cases (eliminated entirely through renal system) and given the physiologic comparability between porcine and human kidneys. The 0.01 mg/kg dose used in pigs translates to an approximate human equivalent dose of 0.7-0.8 mg/participant. This is consistent with the dose recommendation for the clinical Phase 3 study (1 mg/participant).
# ureters [5] = assay: Qualitative in vivo ureter visualization in Yorkshire pig (Stryker 1588 AIM System and SPY-PHI open field system); settings: 0.01 mg/kg, iv; either imaging system; prior to any dissection
# Method: In a second qualitative in vivo study, pudexacianinium (0.01 mg/kg, iv) was injected into a healthy female Yorkshire pig and the ureters were visualized using examples of an image guided surgery system 10 of FIG. 1A—a Stryker Corporation 1588 AIM System and a Stryker Corporation SPY-PHI open field system—prior to any dissection.
# ureter(s) = assay: Phase 2 dose ranging study, Visualization Review Committee (VRC) assessment of ureter visualization; assay type: in vivo, human
# Excerpt: The results from the Phase 1 study provided the foundation for Phase 2 study, a randomized open-label, dose ranging study for ureter visualization, using ASP5354 in participants undergoing laparoscopic/minimally invasive colorectal surgery.
# The results of the Phase 2 study support the use of pudexacianinium as an intraoperative ureter visualization (surgeon's ability to identify/locate the ureter from the surrounding structures) during the entire abdominopelvic surgical procedure. […] As a result, the VRC recommended moving forward with the 1 mg per participant dose for Phase 3.
# [6] = Dye in ureter, 1 mg (N = 6) including expansion
# [7] = No Dye in ureter, 0.3 mg (N = 3)
# [8] = No Dye in ureter, 1 mg (N = 6) including expansion
substance,measurement,setting,value
pudexacianinium chloride,"Contrast quantification, Mean","ureters [1]; 0.3 mg, N 3, Baseline image",1.10
same,"Contrast quantification, Mean","ureters [1]; 0.3 mg, N 3, Fluorescence-containing image",1.84
same,proportion of data with CEF above 1.5,"ureters [1]; 1 mg and 3 mg, dye",≥ 90%
same,"Contrast quantification, Mean","ureters [1]; 1.0 mg, N 6, Fluorescence-containing image (first column of the dose)",2.55
same,"Contrast quantification, Mean","ureters [1]; 1.0 mg, N 6, head printed Fluorescence-containing image (second column of the dose)",1.06
same,"Contrast quantification, Mean","ureters [1]; 3.0 mg, N 3, Fluorescence-containing image (first column of the dose)",3.23
same,"Contrast quantification, Mean","ureters [1]; 3.0 mg, N 3, head printed Fluorescence-containing image (second column of the dose)",1.09
same,"CEF, Mean (SD)","ureters [1]; Dye in ureter, 0.3 mg (N = 3)",1.84 (0.46)
same,"CEF, Median","ureters [1]; Dye in ureter, 0.3 mg (N = 3)",1.77
same,"CEF, Min-Max","ureters [1]; Dye in ureter, 0.3 mg (N = 3)",1.3-3.0
same,"CEF, Mean (SD)","ureters [1]; Dye in ureter, 1 mg (N = 3)",2.97 (1.03)
same,"CEF, Median","ureters [1]; Dye in ureter, 1 mg (N = 3)",2.96
same,"CEF, Min-Max","ureters [1]; Dye in ureter, 1 mg (N = 3)",1.6-5.6
same,"CEF, Mean (SD)",ureters [1]; [6],2.55 (0.95)
same,"CEF, Median",ureters [1]; [6],2.28
same,"CEF, Min-Max",ureters [1]; [6],1.3-5.6
same,"CEF, Mean (SD)","ureters [1]; Dye in ureter, 3 mg (N = 3)",3.23 (1.70)
same,"CEF, Median","ureters [1]; Dye in ureter, 3 mg (N = 3)",2.64
same,"CEF, Min-Max","ureters [1]; Dye in ureter, 3 mg (N = 3)",1.2-7.7
same,"CEF, Mean (SD)",ureters [1]; [7],1.10 (0.13)
same,"CEF, Median",ureters [1]; [7],1.05
same,"CEF, Min-Max",ureters [1]; [7],0.9-1.3
same,"CEF, Mean (SD)","ureters [1]; No Dye in ureter, 1 mg (N = 3)",1.06 (0.12)
same,"CEF, Median","ureters [1]; No Dye in ureter, 1 mg (N = 3)",1.07
same,"CEF, Min-Max","ureters [1]; No Dye in ureter, 1 mg (N = 3)",0.8-1.3
same,"CEF, Mean (SD)",ureters [1]; [8],1.06 (0.12)
same,"CEF, Median",ureters [1]; [8],1.06
same,"CEF, Min-Max",ureters [1]; [8],0.8-1.4
same,"CEF, Mean (SD)","ureters [1]; No Dye in ureter, 3 mg (N = 3)",1.09 (0.10)
same,"CEF, Median","ureters [1]; No Dye in ureter, 3 mg (N = 3)",1.10
same,"CEF, Min-Max","ureters [1]; No Dye in ureter, 3 mg (N = 3)",0.7-1.2
same,contrast quantification,ureters [1]; baseline image,1.3
same,contrast quantification value for the baseline images,"ureters [1]; baseline images, absence of bolus",around 1
same,contrast quantification,ureters [1]; fluorescence imaging agent image,2.0
same,"CEF value, all data points",ureters [1]; no dye conditions,below 1.5
same,reference CEF,ureters [1]; no dye present in the ureter,~1
same,concentration at which fluorescence intensity tended to plateau,[2],greater than or equal to 100 μg/mL
same,NIR-F Intensity,pig ureters ex vivo; 0.01 ug/mL,0.000 arbitrary units
same,NIR-F Intensity,pig ureters ex vivo; 0.03 ug/mL,4.672 arbitrary units
same,NIR-F Intensity,pig ureters ex vivo; 0.1 ug/mL,47.945 arbitrary units
same,NIR-F Intensity,pig ureters ex vivo; 0.3 ug/mL,125.078 arbitrary units
same,NIR-F Intensity,pig ureters ex vivo; 1.0 ug/mL,229.504 arbitrary units
same,NIR-F Intensity,pig ureters ex vivo; 3.0 ug/mL,254.867 arbitrary units
same,NIR-F Intensity,pig ureters ex vivo; 10 ug/mL,254.808 arbitrary units
same,concentration at which NIR-F intensity tended to plateau,pig ureters ex vivo; 0.01-10 μg/mL in pig ureters ex vivo,≥ 1 µg/mL
same,animals demonstrating ureteral visualization for three hours,ureters [3]; 0.001 mg/kg intravenously,one out of three
same,animals showing ureteral visualization for the full three hour observation period,ureters [3]; 0.01 mg/kg intravenously,three out of three
same,urine concentration of pudexacianinium,[4],1 to 6 µg/mL
same,visibility of ureters,ureters [5],readily visible
same,VRC: adequacy for ureter(s) visualization,ureter(s); 0.3 mg per participant,inadequate for ureter(s) visualization
same,VRC: ureter(s) visualization,"ureter(s); 1 mg per participant, during procedure, at beginning and end",provided ureter(s) visualization during the surgical procedure
same,VRC: difference in ureter(s) visualization between doses,ureter(s); 1 mg vs 3 mg dose,no notable differences
same,VRC conclusion on ureter visualization under NIR-F conditions,"ureter(s); all doses (0.3, 1, 3 mg per participant)",enhanced visualization of ureter(s)
same,VRC: visualization throughout the duration of the surgical procedure,ureter(s); single dose of 1 mg and 3 mg per participant,consistently occurred
